BindingDB's records for patent WO2022101377 (Boehringer Ingelheim International, 2022)

Target: Platelet-activating factor receptor (Homo sapiens, UniProt P25105)
Assay: EVALUATION OF THE INHIBITION OF PAFR ACTIVATION
Description: USING AN ENDPOINT ASSAY HEK293 cells overexpressing human PAFR (produced in-house) are seeded into a Poly-D-Lysine coated 384 well white cell culture microtiter assay plate with lid (15.000 cells per well). Subsequently, the plates are incubated over night at 37 °C/5% CO2. On the next day, cells are being washed and subsequently, various concentrations of the test compounds (compounds in 100% DMSO; final concentratrion of DMSO in wells is 1%) are added to the assay plate via Echo 555 acoustic liquid handler. Plates are then incubated with lid for 90 minutes at 37 °C/5% CO2. Thereafter, PAF ligand (Cayman Chemical Company, Item no.: 60900) is added at a final concentration of 11 nM. Plates are then incubated with lid for 60 minutes at 37 °C/5% CO2. Then, 5 µl per well of Anti-IP1-Antibody-Cryptate solution and 5 µL per well of IP1-d2 solution are added to all wells of the plate and the plate is incubated for another 60 minutes light protected at room temperature. The emissions at 620 nm and 665 nm (Excitation wavelength: 320 nm) are measured using an Envision Reader (PerkinElmer).

Platelet-activating factor receptor, sequence (P25105 whole entry): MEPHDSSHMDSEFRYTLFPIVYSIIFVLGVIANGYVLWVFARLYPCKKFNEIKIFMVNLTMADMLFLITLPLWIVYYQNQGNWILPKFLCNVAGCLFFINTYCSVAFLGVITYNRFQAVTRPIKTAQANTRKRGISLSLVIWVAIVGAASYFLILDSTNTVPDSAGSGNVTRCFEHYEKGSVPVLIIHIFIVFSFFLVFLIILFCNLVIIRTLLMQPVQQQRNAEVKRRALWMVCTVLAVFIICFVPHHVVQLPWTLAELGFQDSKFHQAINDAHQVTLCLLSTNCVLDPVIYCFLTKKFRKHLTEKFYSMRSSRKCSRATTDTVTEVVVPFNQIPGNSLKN

Row | Structure (SMILES) | IC50 [nM]
1 | Cc1nnc2n1-c1sc3c(c1C(c1ccccc1Cl)NC2)C[C@H](C(=O)N1CCCC2(CC2)C1)C3 (stereo partly specified) [WO2022101377, Example 66] | 2.7
2 | COc1ccccc1C1NCc2nnc(C)n2-c2sc3c(c21)CC(C(=O)N1CCOCC1)C3 (stereo unspecified) [WO2022101377, Example 54] | > 322
3 | Cc1nnc2n1-c1sc3c(c1C(c1ccccc1O)NC2)CC(C(=O)N1CCOCC1)C3 (stereo unspecified) [WO2022101377, Example 61] | > 322
4 | CSc1ccccc1C1NCc2nnc(C)n2-c2sc3c(c21)CC(C(=O)N1CCOCC1)C3 (stereo unspecified) [WO2022101377, Example 79] | 235
5 | Cc1nnc2n1-c1sc3c(c1C(c1cc(F)cc(F)c1)NC2)CC(C(=O)N1CCOCC1)C3 (stereo unspecified) [WO2022101377, Example 58] | > 322
6 | Cc1nnc2n1-c1sc3c(c1C(c1ccccc1)NC2)CC(C(=O)N1CCOCC1)C3 (stereo unspecified) [WO2022101377, Example 74] | 102
7 | CCCc1nnc2n1-c1sc3c(c1C(c1ccccc1Cl)NC2)CC(C(=O)N1CCOCC1)C3 (stereo unspecified) [WO2022101377, Example 80] | 110
8 | Cc1nnc2n1-c1sc3c(c1C(c1ccccc1CO)NC2)CC(C(=O)N1CCOCC1)C3 (stereo unspecified) [WO2022101377, Example 60] | > 322
9 | Cc1nnc2n1-c1sc3c(c1C(c1ccccc1C1CC1)NC2)CC(C(=O)N1CCOCC1)C3 (stereo unspecified) [WO2022101377, Example 59] | > 322
10 | Cc1nnc2n1-c1sc3c(c1C(c1ccccc1C(F)(F)F)NC2)CC(C(=O)N1CCOCC1)C3 (stereo unspecified) [WO2022101377, Example 56] | > 322
11 | Cc1ccccc1[C@H]1NCc2nnc(C)n2-c2sc3c(c21)C[C@H](C(=O)N1CCOCC1)C3 [WO2022101377, Example 63] | > 568
